Experimental data: ChEMBL document CHEMBL3351886
The source made the active and inactive calls. The calls are words filed in the database; no cut-off is given here.

Key:
Format in all cases: cell-based
[1] = tested on: NG108-15; experiment: Agonist activity at AT2 receptor in rat and mouse hybridoma NG108-15 cells assessed as induction of neurite outgrowth at 100 nM after 3 days in presence of 1 uM AT2 receptor antagonist PD 123,319 by phase contrast microscopy
[2] = tested on: NG108-15; experiment: Agonist activity at AT2 receptor in rat and mouse hybridoma NG108-15 cells assessed as induction of neurite outgrowth at 100 nM after 3 days by phase contrast microscopy
[3] = tested on: NG108-15; experiment: Antagonist activity at AT2 receptor in rat and mouse hybridoma NG108-15 cells assessed as reduction in angiotensin-2-induced neurite outgrowth at 100 nM after 3 days by phase contrast microscopy

Row | Compound | Activity [1] | Activity [2] | inhibition [3]
1 | CNCC(=O)N[C@@H](CCCNC(=N)N)C(=O)N[C@H](C(=O)N[C@@H](Cc1ccc(O)cc1)C(=O)N[C@H](C(=O)N[C@@H](Cc1cnc[nH]1)C(=O)N1CCC[C@H]1C(=O)N[C@@H](C)C(=O)O)C(C)C)C(C)C | inactive | Active | inactive
2 | CC[C@H](C)[C@H](NC(=O)[C@@H]1CCCN1C(=O)[C@H](Cc1c[nH]cn1)NC(=O)[C@@H](NC(=O)[C@H](Cc1ccc(O)cc1)NC(=O)[C@@H](NC(=O)[C@H](CCCN=C(N)N)NC(=O)CNC)C(C)C)[C@@H](C)CC)C(=O)O | inactive | Active | inactive
3 | CC[C@H](C)[C@H](NC(=O)[C@H](Cc1ccc(O)cc1)NC(=O)[C@@H](NC(=O)[C@H](CCCNC(=N)N)NC(=O)[C@@H](N)CC(=O)O)C(C)C)C(=O)N[C@@H](Cc1cnc[nH]1)C(=O)N1CCC[C@H]1C(=O)N[C@@H](Cc1ccccc1)C(=O)O | inactive | Active | –
